The values below come from patent US11723908B2, “Quinazoline derivatives as antitumor agents” (SUZHOU ZANRONG PHARMA LIMITED, priority 2018, dated 2023).

One may read the IC50 as the concentration that inhibits the measured activity by half. The low end stands for inhibition by little substance, the high end for a need for much substance.

Where two headings read alike, the source gives them in different places. Where only a bound is given, the exact number is not on record here.

One test deals with HER2 (Homo sapiens (Human), UniProt P04626). In words: BT474 cellular assay (HER2 inhibition), phospho-HER2 ELISA. It counts as cell-based. The conditions noted are these: inhibition of phosphor HER2, BT474 cells, 2 hours compound incubation. How it is done: Assay a) BT474 Cellular Assay (HER2 Inhibition) Inhibition of phosphor HER2 was determined by enzyme-linked immunosorbent assay (ELISA) in BT474 cells. BT474 cell line was purchased from [NT] number HTB-20). Human Phospho-ErbB2 ELISA kit was purchased from R&D systems (catalog number DYC1768). Day 1: When the cells reach 70-90% confluence, cells were trypsinized and re-suspended. 5000 cells per well were seeded to a 384-well plate. The plate was incubated at 37° C. with 5% CO2 for 24 hours. ELISA plate was coated with 2 μg/ml capture antibody, which was incubated at 4° C. overnight. Day 2: 25 nl compounds was dosed by Echo from source plate and the 384-well plate was incubated at 37° C. for 2 hours. 30 μl lysis buffer was added to each well and the 384-well plate was shaken softly at 4° C. for 30 minutes. The ELISA plate was washed, blocked and incubated at room temperature for 1-2 hours. The blocked ELISA plate was washed and 20 μl cell lysate was transferred from the 384-well plate to the ELISA plate, which was incubated overnight at 4° C. Day 3: The ELISA plate was washed 3 times. 25 μl/well detection antibody was added (diluted 1 by 2000 in 1% BSA in PBS). After 2 hours of incubation with detection antibody, the ELISA plate was washed 3 times, 25 μl/well TMB substrate was added and incubated for 10-15 minutes before stop solution was added. Absorbance at 450 nm and 570 nm was read within 30 minutes after adding the stop solution. […] The IC50 results are provided in Table 1 for some exemplary compounds.
Chain of HER2 (P04626 23-1255): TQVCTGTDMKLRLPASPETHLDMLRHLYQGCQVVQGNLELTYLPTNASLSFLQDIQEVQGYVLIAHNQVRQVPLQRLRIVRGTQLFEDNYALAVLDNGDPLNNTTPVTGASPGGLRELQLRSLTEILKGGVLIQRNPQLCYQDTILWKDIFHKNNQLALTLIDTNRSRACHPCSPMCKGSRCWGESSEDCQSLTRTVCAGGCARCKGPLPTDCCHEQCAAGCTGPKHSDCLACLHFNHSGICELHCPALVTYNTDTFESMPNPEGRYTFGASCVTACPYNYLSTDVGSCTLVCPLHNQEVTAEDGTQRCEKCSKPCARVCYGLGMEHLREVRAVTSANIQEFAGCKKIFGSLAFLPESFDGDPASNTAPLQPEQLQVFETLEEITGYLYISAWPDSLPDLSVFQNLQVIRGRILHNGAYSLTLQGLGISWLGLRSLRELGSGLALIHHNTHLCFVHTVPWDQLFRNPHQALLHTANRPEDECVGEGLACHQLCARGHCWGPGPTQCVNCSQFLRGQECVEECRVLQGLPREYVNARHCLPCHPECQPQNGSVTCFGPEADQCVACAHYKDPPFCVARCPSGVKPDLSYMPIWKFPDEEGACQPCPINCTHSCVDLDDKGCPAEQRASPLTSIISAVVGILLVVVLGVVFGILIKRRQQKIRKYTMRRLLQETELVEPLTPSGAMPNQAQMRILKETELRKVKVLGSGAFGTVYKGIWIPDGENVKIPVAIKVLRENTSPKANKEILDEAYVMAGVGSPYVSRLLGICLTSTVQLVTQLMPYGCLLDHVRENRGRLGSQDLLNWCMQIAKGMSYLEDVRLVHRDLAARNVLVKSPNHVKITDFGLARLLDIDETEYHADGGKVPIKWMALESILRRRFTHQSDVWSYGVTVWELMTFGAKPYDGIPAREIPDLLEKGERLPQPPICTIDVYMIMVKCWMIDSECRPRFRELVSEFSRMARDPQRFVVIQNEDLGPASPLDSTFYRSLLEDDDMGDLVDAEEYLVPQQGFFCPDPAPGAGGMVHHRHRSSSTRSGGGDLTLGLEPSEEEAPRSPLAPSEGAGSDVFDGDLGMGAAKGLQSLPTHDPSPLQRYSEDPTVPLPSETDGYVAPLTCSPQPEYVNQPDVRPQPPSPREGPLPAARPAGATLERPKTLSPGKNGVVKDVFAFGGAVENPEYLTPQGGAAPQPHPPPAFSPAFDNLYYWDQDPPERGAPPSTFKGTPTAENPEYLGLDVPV

The target of the next test is wt-EGFR (Homo sapiens (Human), UniProt P00533). In words: NCI H838 cellular assay (wt-EGFR inhibition), phospho-EGFR ELISA. Format: cell-based. The protocol: Assay b) NCI H838 Cellular Assay (Wt-EGFR Inhibition) Inhibition of phosphor wt-EGFR was determined by enzyme-linked immunosorbent assay (ELISA) in NCI H838 cells (ATCC, catalog number CRL-5844). Human Phospho-EGFR DuoSet IC ELISA kit was purchased from R&D systems (catalog number DYC1095). Day 1: When the cells reach 70-90% confluence, cells were trypsinized and re-suspended. 5000 cells per well were seeded to a 384-well plate. The plate was incubated at 37° C. with 5% CO2 for 24 hours. Day 2: Cell culture medium was replaced with 40 μL FBS-Free RPMI1640. After 2 hours of starvation, the 384-well plate was dosed with 40 nL of compounds by Echo from source plate and the 384-well plate was incubated at 37° C. with 5% CO2 for 2 hours. After 2 hours of incubation with compounds, EGF (final concentration at 100 ng/ml) was added to the plate which was incubated at 37° C. with 5% CO2 for 5-10 minutes. Medium was discarded from the plate and 30 μl/well lysis buffer was added to the plate which was incubated at 4° C. for 10 minutes. The cell lysates can be stored at −80° C. in cell plates but must be thawed at room temperature for at least 30 minutes prior to use and continuing the assay. ELISA plate was coated by diluting capture antibody to 4 μg/ml with PBS, and 25 μl/well was dispensed to 384 well UltraCruz® ELISA Plate, which was incubated at 4° C. overnight. Day 3: After the plates were washed three times with 100 μl/well of wash buffer, the plates were blocked by adding 75 μl of Block Buffer to each well and incubated at room temperature for 3 hours. After the plates were washed three times with 100 μl/well of wash buffer, 20 μl cell lysate was transferred to the blocked ELISA plate which was incubated for 2 hours at room temperature. After the plates were washed three times with 100 μl/well of wash buffer, 25 μl/well detection antibody (dilute 1 in 900 in assay buffer) was added the plate which was incubated for 2 hours, protected from light. After washed three times, 25 μl/well TMB substrate was added to the ELISA plate which was incubated for about 10-15 min, protected from light before addition of 25 μl/well stop solution. Absorbance was read at 450 nm and 570 nm within 30 minutes.
Chain of wt-EGFR (P00533 25-1210): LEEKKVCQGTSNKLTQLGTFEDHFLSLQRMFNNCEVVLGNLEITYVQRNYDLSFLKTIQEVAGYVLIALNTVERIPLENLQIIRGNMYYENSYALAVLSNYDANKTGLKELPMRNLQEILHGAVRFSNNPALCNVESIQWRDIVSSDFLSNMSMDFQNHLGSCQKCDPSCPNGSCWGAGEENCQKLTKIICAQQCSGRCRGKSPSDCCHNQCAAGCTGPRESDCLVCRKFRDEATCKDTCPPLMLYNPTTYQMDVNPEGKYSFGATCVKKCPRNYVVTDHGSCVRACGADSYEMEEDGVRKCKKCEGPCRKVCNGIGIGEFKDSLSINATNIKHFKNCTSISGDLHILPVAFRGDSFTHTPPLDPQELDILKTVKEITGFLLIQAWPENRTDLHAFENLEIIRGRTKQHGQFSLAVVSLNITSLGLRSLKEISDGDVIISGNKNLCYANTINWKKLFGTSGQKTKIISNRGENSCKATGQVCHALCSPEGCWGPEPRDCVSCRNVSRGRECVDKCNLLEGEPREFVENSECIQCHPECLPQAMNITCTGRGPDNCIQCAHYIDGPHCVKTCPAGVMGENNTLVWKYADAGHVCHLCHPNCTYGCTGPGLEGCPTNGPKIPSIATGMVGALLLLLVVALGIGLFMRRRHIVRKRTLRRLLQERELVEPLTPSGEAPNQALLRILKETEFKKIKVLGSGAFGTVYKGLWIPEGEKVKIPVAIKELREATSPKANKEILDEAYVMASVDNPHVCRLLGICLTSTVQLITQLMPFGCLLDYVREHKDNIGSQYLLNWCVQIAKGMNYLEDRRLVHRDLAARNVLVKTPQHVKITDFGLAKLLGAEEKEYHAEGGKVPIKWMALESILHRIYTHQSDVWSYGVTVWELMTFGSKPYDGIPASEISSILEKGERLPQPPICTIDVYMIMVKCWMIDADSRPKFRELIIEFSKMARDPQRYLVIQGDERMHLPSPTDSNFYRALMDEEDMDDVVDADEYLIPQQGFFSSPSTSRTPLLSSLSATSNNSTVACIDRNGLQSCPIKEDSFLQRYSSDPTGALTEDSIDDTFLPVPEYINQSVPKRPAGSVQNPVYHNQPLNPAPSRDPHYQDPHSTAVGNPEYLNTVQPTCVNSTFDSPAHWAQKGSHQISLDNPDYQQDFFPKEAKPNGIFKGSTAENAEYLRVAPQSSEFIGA
On the technique in general: In an ELISA, binding on a coated surface is turned into a signal by an enzyme label.

[1] abbreviates: inhibition of phosphor wt-EGFR, NCI H838 cells, EGF 100 ng/ml.

Take `Cc1cc(Nc2ncnc3ccc(NC4=NC(C)(C)CO4)c(N4CC(N(C)C)C4)c23)ccc1Oc1cc2ncnn2cn1` [Example 54, N4-(4-([1,2,4]triazolo[1,5-c]pyrimidin-7-yloxy)-3-methylphenyl)-N6-(4,4-dimethyl-4,5-dihydrooxazol-2-yl)-5-(3-(dimethylamino)azetidin-1-yl)quinazoline-4,6-diamine]: the results for the IC50 on HER2 and at wt-EGFR (setting [1]) were 190 nM and > 10000 nM, respectively. `COc1ccc2ncnc(Nc3ccc(Oc4cc5ncnn5cn4)c(C)c3)c2c1N1C[C@@H]2[C@H]1CCN2C` [Example 46, N-(4-([1,2,4]triazolo[1,5-c]pyrimidin-7-yloxy)-3-methylphenyl)-6-methoxy-5-((1R,5R)-2-methyl-2,6-diazabicyclo[3.2.0]heptan-6-yl)quinazolin-4-amine]: the 50% inhibitory concentration (IC50) was determined as 7.3 nM against HER2 and 215 nM against wt-EGFR (setting [1]). The matching figures for `COc1ccc2ncnc(Nc3ccc(Oc4cc5ncnn5cn4)c(C)c3)c2c1N1CC[C@H](N(C)C)C1` [Example 3, (S)—N-(4-([1,2,4]triazolo[1,5-c]pyrimidin-7-yloxy)-3-methylphenyl)-5-(3-(dimethylamino)pyrrolidin-1-yl)-6-methoxyquinazolin-4-amine]: 31 nM and 330 nM. Consider `COc1ccc2ncnc(Nc3ccc(Oc4cc5ncnn5cn4)c(C)c3)c2c1N1C[C@@H](F)[C@H](N(C)C)C1` [Example 40, N-(4-([1,2,4]triazolo[1,5-c]pyrimidin-7-yloxy)-3-methylphenyl)-5-((3R,4R)-3-(dimethylamino)-4-fluoropyrrolidin-1-yl)-6-methoxyquinazolin-4-amine], for which the IC50 is 63 nM against HER2 and > 10000 nM against wt-EGFR (setting [1]). On to `COc1ccc2ncnc(Nc3ccc(Oc4cc5ncnn5cn4)c(C)c3)c2c1N1CC2(C[C@@H](F)CCN2C)C1` (single isomer, unassigned) [Example 48], for which the IC50 at HER2 was 6.7 nM; at wt-EGFR (setting [1]), 364 nM. Take `COc1cc(O[C@H]2CCN(C)CC2(F)F)c2c(Nc3ccc(Oc4cc5ncnn5cn4)c(C)c3)ncnc2c1` [Example 51, (S)—N-(4-([1,2,4]triazolo[1,5-c]pyrimidin-7-yloxy)-3-methylphenyl)-5-((3,3-difluoro-1-methylpiperidin-4-yl)oxy)-7-methoxyquinazolin-4-amine]: the concentration for half-maximal inhibition (IC50) against HER2 turned out to be 176 nM; at wt-EGFR (setting [1]) it was 183 nM. As for `[2H]C([2H])([2H])N1CCC(Oc2c(OC)ccc3ncnc(Nc4ccc(Oc5cc6ncnn6cn5)c(C)c4)c23)C(F)(F)C1` (stereo not drawn) [Example 35, N-(4-([1,2,4]triazolo[1,5-c]pyrimidin-7-yloxy)-3-methylphenyl)-5-((3,3-difluoro-1-(methyl-d3)piperidin-4-yl)oxy)-6-methoxyquinazolin-4-amine], the IC50 at HER2 was determined as 16 nM; at wt-EGFR, 1280 nM.

Turning to `Cc1cc(Nc2ncnc3cccc(N4CC5(CN(C)CCO5)C4)c23)ccc1Oc1cc2ncnn2cn1` [Example 55, N-(4-([1,2,4]triazolo[1,5-c]pyrimidin-7-yloxy)-3-methylphenyl)-5-(8-methyl-5-oxa-2,8-diazaspiro[3.5]nonan-2-yl)quinazolin-4-amine], the half-maximal inhibitory concentration (IC50) against HER2 was 912 nM; at wt-EGFR (setting [1]) it was > 10000 nM. Regarding `COc1ccc2ncnc(Nc3ccc(Oc4cc5ncnn5cn4)c(C)c3)c2c1N1CC(N(C)C)C1` [Example 1, N-(4-([1,2,4]triazolo[1,5-c]pyrimidin-7-yloxy)-3-methylphenyl)-5-(3-(dimethylamino)azetidin-1-yl)-6-methoxyquinazolin-4-amine], the figures for the half-inhibitory concentration (IC50) at HER2 and at wt-EGFR (setting [1]) were 9.2 nM and 2800 nM, respectively.

For the compound `[2H]C([2H])([2H])Oc1ccc2ncnc(Nc3ccc(Oc4cc5ncnn5cn4)c(C)c3)c2c1O[C@H]1CCN(C)CC1(F)F` [Example 37, (S)—N-(4-([1,2,4]triazolo[1,5-c]pyrimidin-7-yloxy)-3-methylphenyl)-5-((3,3-difluoro-1-methylpiperidin-4-yl)oxy)-6-(methoxy-d3)quinazolin-4-amine], the half-inhibitory concentration (IC50) is 12 nM at HER2 and > 10000 nM on wt-EGFR.

On to `COc1ccc2ncnc(Nc3ccc(Oc4cc5ncnn5cn4)c(C)c3)c2c1O[C@H]1CCN(C)CC1(F)F` [Example 32, (S)—N-(4-([1,2,4]triazolo[1,5-c]pyrimidin-7-yloxy)-3-methylphenyl)-5-((3,3-difluoro-1-methylpiperidin-4-yl)oxy)-6-methoxyquinazolin-4-amine], for which the IC50 at HER2 turned out to be 16 nM; against wt-EGFR it was 4800 nM. Regarding `COc1cc(O[C@@H]2CCN(C)CC2(F)F)c2c(Nc3ccc(Oc4cc5ncnn5cn4)c(C)c3)ncnc2c1` [Example 52, (R)—N-(4-([1,2,4]triazolo[1,5-c]pyrimidin-7-yloxy)-3-methylphenyl)-5-((3,3-difluoro-1-methylpiperidin-4-yl)oxy)-7-methoxyquinazolin-4-amine], the IC50 was found to be 182 nM against HER2 and 800 nM against wt-EGFR (setting [1]). As to `COc1ccc2ncnc(Nc3ccc(Oc4cc5ncnn5cn4)c(C)c3)c2c1N1CC2(C[C@@H](F)CN2C)C1` (single isomer, unassigned) [Example 44], the IC50 on HER2 is 5 nM; on wt-EGFR (setting [1]) it was 234 nM. `COc1ccc2ncnc(Nc3ccc(Oc4cc5ncnn5cn4)c(C)c3)c2c1N1CC2(C[C@H](F)CN2C)C1` (single isomer, unassigned) [Example 43]: the values for the IC50 at HER2 and against wt-EGFR (setting [1]) were 24 nM and 2030 nM, respectively. For the compound `COc1ccc2ncnc(Nc3ccc(Oc4cc5ncnn5cn4)c(C)c3)c2c1N1CC2(COCCN2C)C1` [Example 41, N-(4-([1,2,4]triazolo[1,5-c]pyrimidin-7-yloxy)-3-methylphenyl)-6-methoxy-5-(5-methyl-8-oxa-2,5-diazaspiro[3.5]nonan-2-yl)quinazolin-4-amine], the IC50 against HER2 worked out at 35 nM; against wt-EGFR (setting [1]), 2260 nM. Take `COc1ccc2ncnc(Nc3ccc(Oc4cc5ncnn5cn4)c(C)c3)c2c1N1CC2(CN(C)CCO2)C1` [Example 38, N-(4-([1,2,4]triazolo[1,5-c]pyrimidin-7-yloxy)-3-methylphenyl)-6-methoxy-5-(8-methyl-5-oxa-2,8-diazaspiro[3.5]nonan-2-yl)quinazolin-4-amine]: the figures for the 50% inhibitory concentration (IC50) against HER2 and against wt-EGFR (setting [1]) were 37 nM and > 10000 nM, respectively.

As for `Cc1cc(Nc2ncnc3ccc(OCCF)c(N4CC(N(C)C)C4)c23)ccc1Oc1cc2ncnn2cn1` [Example 12, N-(4-([1,2,4]triazolo[1,5-c]pyrimidin-7-yloxy)-3-methylphenyl)-5-(3-(dimethylamino)azetidin-1-yl)-6-(2-fluoroethoxy)quinazolin-4-amine], the IC50 against HER2 was found to be 26 nM; on wt-EGFR (setting [1]) it was 180 nM. As for `[2H]C([2H])([2H])Oc1ccc2ncnc(Nc3ccc(Oc4cc5ncnn5cn4)c(C)c3)c2c1O[C@@H]1CCN(C([2H])([2H])[2H])CC1(F)F` [Example 77, (R)—N-(4-([1,2,4]triazolo[1,5-c]pyrimidin-7-yloxy)-3-methylphenyl)-5-((3,3-difluoro-1-(methyl-d3)piperidin-4-yl)oxy)-6-(methoxy-d3)quinazolin-4-amine], the IC50 against HER2 was determined as 14 nM. The same measure, in the same setting: next, `COc1ccc2ncnc(Nc3ccc(Oc4cc5ncnn5cn4)c(C)c3)c2c1O[C@@H]1CCN(C2CC2)CC1(F)F` [Example 79, (R)-N-(4-([1,2,4]triazolo[1,5-c]pyrimidin-7-yloxy)-3-methylphenyl)-5-((1-cyclopropyl-3,3-difluoropiperidin-4-yl)oxy)-6-methoxyquinazolin-4-amine]: 9.8 nM.
